Experimental data taken from article PMC3288537 (ACS Chemical Biology, 2011).

Target: T1, HePTP (Homo sapiens, UniProt P35236)
T1 sequence (P35236 1-360): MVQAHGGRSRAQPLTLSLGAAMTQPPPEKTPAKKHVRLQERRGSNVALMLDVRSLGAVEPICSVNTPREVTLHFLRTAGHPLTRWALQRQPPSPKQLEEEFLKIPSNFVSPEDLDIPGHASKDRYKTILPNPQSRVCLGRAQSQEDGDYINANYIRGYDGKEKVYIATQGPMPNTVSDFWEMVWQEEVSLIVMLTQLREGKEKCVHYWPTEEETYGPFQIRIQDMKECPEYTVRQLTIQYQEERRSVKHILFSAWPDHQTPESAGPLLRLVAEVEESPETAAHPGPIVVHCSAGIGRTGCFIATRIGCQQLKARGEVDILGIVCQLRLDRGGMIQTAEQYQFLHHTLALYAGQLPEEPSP
Experiment: Dose-response OMFP phosphatase assay, HePTP
Assay type: biochemical

SMILES: O=C(O)c1ccccc1-c1ccc(/C=c2\sc3nc4cc(Br)cnc4n3c2=O)o1 [Compound 1]
- time-dependent inhibition of HePTP (progress curves) (progress curves linear over 98 min at different concentrations): no time-dependent inhibition
- IC50 (read-out: IC50 HePTP, OMFP substrate): 210 nM
